Measurements reported in US6855728B2, “Small-molecule modulators of hepatocyte growth factor / scatter factor activities” (North Shore-Long Island Jewish Health System, priority 2001, dated 2005).

Assays:
[1] = tested on: Endothelial cells (HUVECs); test: Endothelial cell (HUVEC) proliferation assay, 3H thymidine incorporation, compound without added growth factor; assay type: cell-based, human; conditions: for activation at 5 µg/mL / activation at 10 µg/mL: 24 h; for activation at 5 µg/mL / Stimulation/Inhibition at 5 microg/ml (result in words) / Stimulation at 5 microg/ml: 5 microg/ml; for activation at 5 µg/mL / activation at 10 µg/mL / Stimulation at 5 microg/ml / Stimulation at 10 microg/ml: stimulation of endothelial cell proliferation; for Activity at 2 microgram/ml Without HGF/SF: stimulation: stimulation of HUVEC proliferation
Experimental: Cell proliferation assays Endothelial cells (HUVECs) were seeded in 48 well plates at a density of 10,000 to 20,000 cells per well in the normal growth medium (EGM-2-Clonetics) containing 2% fetal bovine serum, FGF, VEGF, IGF, ascorbic acid, EGF, GA, heparin and hydrocortisone. The cells were grown normally in the growth medium for 24 hr at 37 degrees C. and 5% CO2. The cells were then rinsed with RPMI-1% BSA and starved for 1-2 hrs. The stock solutions of all the compounds were made at a concentration of 10 mg/ml in DMSO and diluted in RPMI-1% BSA at a final concentrations of 1 to 12 microgram/ml. The cells were then washed and treated with the compounds and incubated for another 24 hr at 37 degrees C. Then ^3H thymidine (0.5 microgram/ml in RPMI-BSA) was added to the cells and incubated at 37 degrees C. for 4 to 5 hours. The unincorporated thymidine was removed by washing the cells four times with 1× PBS. Then the cells were lysed with 0.5M NaOH for 30 min and the radioactivity counted in the beta counter. […]

[2] = tested on: HGF/SF induced proliferation of HUVEC; test: Endothelial cell (HUVEC) proliferation assay in the presence of exogenously-added HGF/SF; assay type: cell-based, human; conditions: with HGF/SF
From the text: To evaluate inhibitors of activity, compounds may be evaluated directly for anti-proliferative activities, such as the inhibition of cellular proliferation, inhibition of tumor growth, inhibition of scatter, and inhibition of gene expression, and may also be evaluated on their ability to inhibit activity when exposed to cells together with. In such instances, the scatter and/or proliferative activities induced by added will be inhibited by the attendant presence of an inhibitory compound of the invention.
Cell proliferation assays Endothelial cells (HUVECs) were seeded in 48 well plates at a density of 10,000 to 20,000 cells per well in the normal growth medium (EGM-2-Clonetics) containing 2% fetal bovine serum, FGF, VEGF, IGF, ascorbic acid, EGF, GA, heparin and hydrocortisone. The cells were grown normally in the growth medium for 24 hr at 37 degrees C. and 5% CO2. The cells were then rinsed with RPMI-1% BSA and starved for 1-2 hrs. The stock solutions of all the compounds were made at a concentration of 10 mg/ml in DMSO and diluted in RPMI-1% BSA at a final concentrations of 1 to 12 microgram/ml. The cells were then washed and treated with the compounds and incubated for another 24 hr at 37 degrees C. Then ^3H thymidine (0.5 microgram/ml in RPMI-BSA) was added to the cells and incubated at 37 degrees C. for 4 to 5 hours. The unincorporated thymidine was removed by washing the cells four times with 1× PBS. Then the cells were lysed with 0.5M NaOH for 30 min and the radioactivity counted in the beta counter.

[3] = Homo sapiens, HUVEC, 10 microg/ml

SMILES: CCc1cn(C(=O)C(C)(C)C)nc1-c1c(F)cccc1F [1-[3-(2,6-difluorophenyl)-4-ethyl-1H-pyrazol-1-yl]-2,2-dimethylpropan-1-one]
- Stimulation/Inhibition at 10 microg/ml (result in words) ([1]; 10 microg/ml): not significant
- activation at 5 µg/mL ([1]; Homo sapiens, HUVEC): 58%

SMILES: Cc1nn(CCC#N)c(C)c1Cc1c(Cl)cccc1Cl [3-(4-(2,6-dichlorobenzyl)-3,5-dimethyl-1H-pyrazol-1-yl)propanenitrile]
- Activity at 2 microgram/ml Without HGF/SF (result in words) ([1]; without HGF/SF): No effect
- inhibition at 6 µg/mL ([1]; Homo sapiens, 6 microgram/ml, without HGF/SF, inhibition of HUVEC proliferation): 34%
- inhibition at 2 µg/mL ([2]; Homo sapiens, 2 microgram/ml, inhibition of HUVEC proliferation, read-out: Activity at 2 microgram/ml With HGF/SF: inhibition (blocked SF)): 36%
- inhibition at 6 µg/mL ([2]; Homo sapiens, 6 microgram/ml, inhibition of HUVEC proliferation, read-out: Activity at 6 microgram/ml With HGF/SF: inhibition (blocked SF)): 65%

SMILES: O=C(c1ccc(Cl)cc1)n1ccc(C(c2ccccc2)c2ccccc2)n1 [(3-benzhydryl-1H-pyrazol-1-yl)(4-chlorophenyl)methanone]
- Stimulation/Inhibition at 5 microg/ml (result in words) [1]: No effect
- activation at 10 µg/mL [1, 3]: 25%

SMILES: Cc1nc(-c2ccc(-c3cccs3)s2)sc1-c1ccn(C(=O)c2ccc(Cl)cc2)n1 [(4-chlorophenyl)(3-(2-(5-(2-thienyl)-2-thienyl)-4-methyl-1,3-thiazol-5-yl)-1H-pyrazol-1-yl)methanone]
- activation at 5 µg/mL ([1]; Homo sapiens, HUVEC): 20%
- activation at 10 µg/mL [1, 3]: 33%

SMILES: O=C(Nc1ccccc1)n1ccc(C=Cc2cccs2)n1 [N1-phenyl-3-(2-(2-thienyl)vinyl)-1H-pyrazole-1-carboxamide]
- Stimulation/Inhibition at 10 microg/ml (result in words) ([1]; 10 microg/ml): Not significant
- activation at 5 µg/mL ([1]; Homo sapiens, HUVEC): 40%

SMILES: Cc1nn(C)c(C)c1Cc1c(F)cccc1Cl [4-(2-chloro-6-fluorobenzyl)-1,3,5-trimethyl-1H-1-pyrazole]
- Activity at 2 microgram/ml Without HGF/SF: stimulation ([1]; without HGF/SF): 50%
- Activity at 6 microgram/ml Without HGF/SF (result in words) ([1]; 6 microgram/ml, without HGF/SF): No effect
- Activity at 2 microgram/ml With HGF/SF (result in words) ([2]; 2 microgram/ml): No effect
- Activity at 6 microgram/ml With HGF/SF: inhibition (blocked SF) ([2]; 6 microgram/ml, inhibition of HUVEC proliferation): by 30%

SMILES: CCc1c[nH]nc1-c1c(F)cccc1F [3-(2,6-difluorophenyl)-4-ethyl-1H-pyrazole]
- Stimulation at 5 microg/ml [1]: two fold stimulation
- activation at 10 µg/mL [1, 3]: 86%

SMILES: O=C(c1ccc(Cl)cc1)n1ccc(-c2ccc(-c3cccs3)s2)n1 [(4-chlorophenyl)(3-(5-(2-thienyl)-2-thienyl)-1H-pyrazol-1-yl)methanone]
- activation at 5 µg/mL ([1]; Homo sapiens, HUVEC): 40%
- activation at 10 µg/mL [1, 3]: 40%

SMILES: Cc1nn(C(=O)Nc2ccc(Cl)cc2Cl)c(C)c1Cc1csc2ccc(Cl)cc12 [4-[(5-chloro-1-benzothiophen-3-yl)methyl]-N-(2,4-dichlorophenyl)-3,5-dimethyl-1H-pyrazole-1-carboxamide]
- activation at 5 µg/mL ([1]; Homo sapiens, HUVEC): 75%
- activation at 10 µg/mL [1, 3]: 35%

SMILES: Cc1nn(C(=O)c2ccc([N+](=O)[O-])cc2)c(C)c1Cc1csc2ccc(Cl)cc12 [{4-[(5-chlorobenzo[b]thiophen-3-yl)methyl]-3,5-dimethyl-1H-pyrazol-1-yl}(4-nitrophenyl)methanone]
- Stimulation at 10 microg/ml ([1]; 10 microg/ml): 2.5 fold stimulation
- activation at 5 µg/mL ([1]; Homo sapiens, HUVEC): 74%

SMILES: CCc1cn(C(=O)c2cccs2)nc1-c1c(F)cccc1F [[3-(2,6-difluorophenyl)-4-ethyl-1H-pyrazol-1-yl](2-thienyl)methanone]
- Stimulation at 5 microg/ml [1]: 2.5 fold stimulation
- Stimulation at 10 microg/ml ([1]; 10 microg/ml): two fold stimulation

SMILES: CC(C)(C)C(=O)n1ccc(C=Cc2cccs2)n1 [2,2-dimethyl-1-(3-(2-(2-thienyl)vinyl)-1H-pyrazole-1-yl)propan-1-one]
- Stimulation/Inhibition at 5 microg/ml (result in words) [1]: No effect
- activation at 10 µg/mL [1, 3]: 55%

SMILES: Cc1nn(C(=O)Nc2cccc(Cl)c2)c(C)c1Cc1csc2ccc(Cl)cc12 [N1-(3-chlorophenyl)-4-[(5-chlorobenzo[b]thiophen-3-yl)methyl]-3,5-dimethyl-1H-pyrazole-1-carboxamide]
- activation at 5 µg/mL ([1]; Homo sapiens, HUVEC): 86%
- activation at 10 µg/mL [1, 3]: 40%

SMILES: Cc1nn(-c2ccccc2)c(O)c1Cc1c(Cl)cccc1Cl [4-(2,6-dichlorobenzyl)-3-methyl-1-phenyl-1H-pyrazol-5-ol]
- Stimulation at 5 microg/ml [1]: 2.3 fold stimulation
- Stimulation at 10 microg/ml ([1]; 10 microg/ml): two fold stimulation

SMILES: O=C(Nc1ccc(Cl)cc1)n1ccc(C=Cc2cccs2)n1 [N1-(4-chlorophenyl)-3-(2-(2-thienyl)vinyl)-1H-pyrazole-1-carboxamide]
- Stimulation/Inhibition at 5 microg/ml (result in words) [1]: No effect
- activation at 10 µg/mL [1, 3]: 55%

SMILES: Cc1nn(S(=O)(=O)c2ccc(Cl)c(Cl)c2)c(C)c1Cc1c(F)cccc1Cl [4-(2-chloro-6-fluorobenzyl)-1-((3,4-dichlorophenyl)sulfonyl)-3,5-dimethyl-1H-pyrazole]
- Activity at 2 microgram/ml Without HGF/SF: stimulation ([1]; without HGF/SF): 73%

SMILES: C=C(C)Cc1c(C)nn(S(=O)(=O)c2ccccc2)c1O [3-methyl-4-(2-methylallyl)-1-(phenylsulfonyl)-1H-pyrazol-5-ol]
- Stimulation at 5 microg/ml [1]: two fold stimulation
- Stimulation/Inhibition at 10 microg/ml (result in words) ([1]; 10 microg/ml): Not significant

SMILES: CSc1cc(-c2ccc(Oc3ccccc3)cc2)nn1C(=O)c1ccc(Cl)cc1 [(4-chlorophenyl)(5-(methylthio)-3-(4-phenoxyphenyl)-1H-pyrazol-1-yl)methanone]
- Stimulation/Inhibition at 5 microg/ml (result in words) [1]: No effect
- inhibition at 10 µg/mL ([1]; Homo sapiens, HUVEC, 10 microg/ml, inhibition of endothelial cell proliferation): 40%

SMILES: O=C(c1ccc(Cl)cc1)n1ccc(-c2cc(-c3ccccc3)no2)n1 [(4-chlorophenyl)(3-(3-phenylisoxazol-5-yl)-1H-pyrazol-1-yl)methanone]
- activation at 5 µg/mL ([1]; Homo sapiens, HUVEC): 54%
- activation at 10 µg/mL [1, 3]: 60%

SMILES: CNC(=O)n1nc(C)c(Cc2csc3ccc(Cl)cc23)c1C [4-[(5-chloro-1-benzothiophen-3-yl)methyl]-N,3,5-trimethyl-1H-pyrazole-1-carboxamide]
- Stimulation at 5 microg/ml [1]: two fold stimulation
- Stimulation at 10 microg/ml ([1]; 10 microg/ml): two fold stimulation

SMILES: CS(=O)(=O)n1ccc(C=Cc2cccs2)n1 [1-(methylsulfonyl)-3-(2-(2-thienyl)vinyl)-1H-pyrazole]
- Stimulation/Inhibition at 10 microg/ml (result in words) ([1]; 10 microg/ml): Not significant
- activation at 5 µg/mL ([1]; Homo sapiens, HUVEC): 74%

SMILES: Cc1nn(C(=O)c2ccc(Cl)cc2)c(C)c1Sc1nccn1C [(4-chlorophenyl)(3,5-dimethyl-4-((1-methyl-1H-imidazol-2-yl)thio)-1H-pyrazol-1-yl)methanone]
- activation at 5 µg/mL ([1]; Homo sapiens, HUVEC): 52%
- activation at 10 µg/mL [1, 3]: 50%

SMILES: Cc1nn(S(=O)(=O)c2cc(C(F)(F)F)cc(C(F)(F)F)c2)c(C)c1Cc1c(F)cccc1Cl [4-(2-chloro-6-fluorobenzyl)-1-{[3,5-di(trifluoromethyl)phenyl]sulfonyl}-3,5-dimethyl-1H-pyrarole]
- Stimulation at 5 microg/ml [1]: 3.1 fold stimulation
- Stimulation at 10 microg/ml ([1]; 10 microg/ml): 2.4 fold stimulation

SMILES: Cc1nn(C(=O)Nc2ccccc2)c(C)c1Cc1csc2ccc(Cl)cc12 [N1-phenyl-4-[(5-chlorobenzo[b]thiophen-3-yl)methyl]-3,5-dimethyl-1H-pyrazole-1-carboxamide]
- Stimulation at 5 microg/ml [1]: two fold stimulation
- activation at 10 µg/mL [1, 3]: 45%

SMILES: CNC(=O)n1ccc(C=Cc2cccs2)n1 [N-methyl-3-(2-(2-thienyl)vinyl)-1H-pyrazole-1-carboxamide]
- activation at 5 µg/mL ([1]; Homo sapiens, HUVEC): 70%
- activation at 10 µg/mL [1, 3]: 42%

SMILES: N#Cc1c(Cl)cccc1Oc1ccc(-c2ccnn2Cc2ccc(Cl)cc2)cc1 [2-chloro-6-(4-(1-(4-chlorobenzyl)-1H-pyrazol-5-yl)phenoxy)benzonitrile]
- activation at 5 µg/mL ([1]; Homo sapiens, HUVEC): 60%
- activation at 10 µg/mL [1, 3]: 90%

SMILES: Cc1nn(S(=O)(=O)c2ccccc2Cl)c(C)c1-c1csc2ccc(Cl)cc12 [4(5-chlorobenzo(b)thiophen-3-yl)-1-(2-chlorophenyl)sulfonyl)-3,5dimethyl-1-H-pyrazole]
- Stimulation at 5 microg/ml [1]: 1.8 fold stimulation
- Stimulation/Inhibition at 10 microg/ml (result in words) ([1]; 10 microg/ml): Not significant

SMILES: Cc1onc(-c2c(Cl)cccc2Cl)c1C(=O)NN [3-(2,6-dichlorophenyl)-5-methylisoxazole-4-carbohydrazide]
- Activity at 2 microgram/ml Without HGF/SF (result in words) ([1]; without HGF/SF): not significant

SMILES: COC(=O)c1c(C)nn(C(=O)c2ccc(Cl)cc2)c1-c1ccno1 [methyl 1-(4-chlorobenzoyl)-5-isoxazol-5-yl-3-methyl-1H-pyrazole-4-carboxylate]
- Stimulation/Inhibition at 5 microg/ml (result in words) [1]: Not significant
- activation at 10 µg/mL [1, 3]: 33%
